# From patent US5622934A, “Peptides with an insulin-like action” (priority 1991, dated 1997)
# Key:
# rat diaphragm fragments = assay: Glycogenesis: glycogen synthesis in rat diaphragm fragments; type: cell-based; settings: for Concentration [μM] at which 25% of the max. HI action is reached (glycogenesis): 25% of the maximum human insulin action; for Glycogenesis % of the max. HI action: 15 min at 37° C., 50 μM D-[U-14C]glucose, human insulin (HI) = 100%
# Protocol: (§1) The biological activity of the peptides of formula I according to the invention is determined with the aid of preparatively isolated rat fat cells and diaphragm fragments.
# Preparation of rat diaphragm fragments: Small tissue fragments (5 mm diameter) are punched out of hemidiaphragms (Wistar rat, 60-70 g, no feed restriction) which have been washed several times.
# This test determines the insulin-stimulatable glycogen synthesis in muscle cells, comprising the glucose transport via the plasma membrane and the conversion of the glucose to glycogen, including the functional insulin signal transmission cascade.
# Diaphragm fragments are incubated for 15 min at 37° C. in Krebs-Ringer-Henseleit buffer (KRH buffer) with 50 μM D-[U-^14 C]glucose in the presence or absence of insulin or the peptides according to the invention. After the medium has been filtered with suction, the tissue fragments are intensively washed, frozen at -70° C. and then homogenized at 2° C. in a Polytron pulverizer. The homogenate is centrifuged (2000 g) and the supernatant is pipetted onto filter paper. To determine the glycogen formed, the filters are transferred into trichloroacetic acid (TCA) (5%), washed with ethanol and acetone and dried and their radioactivity is determined via scintillation measurement ([^14 C]glycogen [dpm×10^-3 ]).
# (§2) The action of human insulin (HI) is given a value of 100%. The concentration data of the peptides according to the invention used are based on the concentration at which 25% or 20% of the maximum HI action is reached.
# rat fat cells = assay: Lipogenesis: conversion of glucose to toluene-soluble products in isolated rat fat cells; type: cell-based; settings: for Concentration [μM] at which 25% of the max. HI action is reached (lipogenesis): 25% of the maximum human insulin action; for Lipogenesis % of the max. HI action: 90 min at 37° C., D-[3-3H]glucose, human insulin (HI) = 100%
# Protocol: as §1
# (§3) Rat fat cells were prepared as follows: Fatty tissue of the epididymis (Wistar rat, 160-180 g, no feed restriction) is digested with collagenase and the resulting isolated fat cells are washed several times by flotation.
# This test determines the insulin-stimulatable conversion of glucose to toluene-soluble products (triglycerides, phospholipids, fatty acids), requiring the glucose transport and the triglyceride (glycerol-3-P synthesis, esterification)/phospholipid/fatty acid synthesis, including the insulin signal transmission cascade.
# Rat fat cells in KRH buffer are incubated for 90 min at 37° C. with D-[3-^3 H]glucose (0.2 mM or 1 mM final concentration) in the presence or absence of insulin or peptides according to the invention. By the addition of a toluene-soluble scintillation cocktail, the cells are digested and the lipids separated from water-soluble products and the incubation medium. After phase separation, the radioactivity incorporated into lipids is determined by scintillation measurement directly without removal of the aqueous phase ([^3 H]lipid [dpm×10^-3 ]).
# as §2
# [1] = system: plasma membrane vesicles from rat fat cells; assay: Glucose transport activity in isolated plasma membrane vesicles; type: biochemical; settings: for Concentration [μM] at which 20% of the max. HI action is reached (glucose transport): 20% of the maximum human insulin action; for Glucose transport % of the max. HI action: 30 min at 25° C., then 10 sec with 50 μM D-[3-3H]glucose, human insulin (HI) = 100%
# Protocol: as §1, §3
# C) Glucose transport activity
# Isolated plasma membrane vesicles are obtained from rat fat cells by washing the fat cells twice in homogenization buffer (20 mM trihydroxyaminomethane (Tris)/HCl, pH 7.4, 1 mM, 4° C., EDTA, 0.25M sucrose) and then homogenizing them in 20 ml of the same buffer (glass homogenizer with Teflon pestle).
# The homogenate is centrifuged (16,000×g, 15 min) and the sediment is suspended in the same buffer and centrifuged again. The sediment is suspended in 5 ml of homogenization buffer and layered onto a sucrose cushion (1.12M sucrose, 20 mM Tris/HCl, pH 7.4, 1 mM EDTA); after centrifugation (100,000×g, 70 min), the interphase containing the plasma membrane vesicles is removed with a syringe, diluted with 45 ml of buffer and centrifuged again (48,000×g, 45 min). The sediment is suspended in 10 ml of buffer, centrifuged again and resuspended in 3 ml of buffer.
# Isolated plasma membrane vesicles are incubated for 30 min at 25° C. in the presence or absence of insulin or the peptides according to the invention. The vesicles are then incubated for 10 sec at 25° C. with 50 μM D-[3-^3 H]glucose and […] of the same specific radioactivity. The mixtures are rapidly filtered with suction on nitrocellulose filters. The filters are washed copiously and dried. Their radioactivity is determined by liquid scintillation measurement. The specific transport (D-[^3 H]glucose/L-[^4 C]glucose [dpm×10^-3 ]) is calculated as the difference between the [^3 H] and [^14 C] radioactivity.
# as §2
Substance,Concentration [μM] at which 25% of the max. HI action is reached (glycogenesis) (rat diaphragm fragments) [µM],Glycogenesis % of the max. HI action (rat diaphragm fragments) [%],Concentration [μM] at which 25% of the max. HI action is reached (lipogenesis) (rat fat cells) [µM],Lipogenesis % of the max. HI action (rat fat cells) [%],Concentration [μM] at which 20% of the max. HI action is reached (glucose transport) [1] [µM],Glucose transport % of the max. HI action [1] [%]
Acetyl--L--Tyr--L--Cys--L--Asn--NH--CH2 --CH2 OH [Example 11],240,45,200,36,260,40
H--(3--(thien--2--yl)--L--Ala)--L--Cys--L--Asn--OH [Example 8],375,31,450,26,410,25
H--D--Tyr--L--Cys--L--Asn--NH--CH2 --CH2 OH [Example 4],–,23,410,31,260,38
H--L--Asn--L--Cys--L--Tyr--NH--CH2 --CH2 OH [Example 3],285,42,375,31,225,38
H--L--Cys--L--Asn--NH--CH2 --CH2 OH [Example 5],–,16,–,21,600,25
H--L--Cys--L--Tyr--NH--CH2 --CH2 OH [Example 6],480,32,–,17,750,24
H--L--Tyr--L--Cys--L--Asn--NH--(CH2)2 --O--PO(OH)--O(CH2)2 --CN [Example 13],100,31,120,33,140,36
H--L--Tyr--L--Cys--L--Asn--NH--(CH2)2 --O--PO(OH)--O--6Manα1--2Manα1--O--CH3 [Example 15],139,29,142,35,122,32
H--L--Tyr--L--Cys--L--Asn--NH--CH2 --CH2 --NH2 [Example 10],450,25,330,30,300,42
H--L--Tyr--L--Cys--L--Asn--NH--CH2 --CH2 --NH--gluconic acid [Example 9],–,11,–,12,–,15
H--L--Tyr--L--Cys--L--Asn--OH [Example 12],–,15,750,26,880,20
H--L--Tyr--L--Cys--NH--(CH2)4 --NH2 [Example 7],–,2,–,18,–,10
H--L--Tyr--L--Cys--NH--CH2 --CH2 --NH2 [Example 2],650,28,500,32,350,40
L--Tyr--L--Cys--L--Asn--NH--(CH2)2 --O--PO(OH)--O--6Manα1--2--Manα1--6Manα1--O--CH3 [Example 16],135,25,125,24,152,29
